Data published in ChEMBL document CHEMBL1149339, “Vasorelaxant activity of cyclic peptide, cyclosquamosin B, from Annona squamosa” (Bioorg Med Chem Lett, 2006).
Active and inactive are the calls of the source.

Assays:
Type in all cases: functional, organism-based
Rattus norvegicus [1] = organism: Rattus norvegicus; test: Vasorelaxant activity against norepinephrine-induced contraction of rat thoracic aortic ring without endothelium; details: Aorta
Rattus norvegicus [2] = organism: Rattus norvegicus; test: Inhibition of potassium ion depolarized calcium-induced contraction of rat aorta mediated by voltage dependent calcium channel at 10 uM
Rattus norvegicus [3] = organism: Rattus norvegicus; test: Inhibition of norepinephrine-induced contraction in rat aorta mediated by receptor operated calcium channel in presence of nicardipine at 10 uM
Rattus norvegicus [4] = organism: Rattus norvegicus; test: Vasorelaxant activity against norepinephrine-induced contraction of rat thoracic aortic ring with endothelium; details: Aorta

Measured: Activity

CC[C@@H](C)[C@@H]1NC(=O)[C@@H]2CCCN2C(=O)[C@@H]2CCCN2C(=O)[C@H](CCC(N)=O)NC(=O)[C@H](CCSC)NC(=O)[C@H](CC(C)C)NC(=O)CN(C)C(=O)[C@H]([C@H](C)O)NC1=O
active: Rattus norvegicus [1] | Rattus norvegicus [2] | Rattus norvegicus [3] | Rattus norvegicus [4]
